Experimental data as given in patent publication US20240299376A1, “METHOD OF TREATING A CONDITION USING A […] EFFECTIVE DOSE OF 1-(1-OXO-1,2-DIHYDROISOQUINOLIN-5-YL)-5-(TRIFLUOROMETHYL)-N-(2-(TRIFLUOROMETHYL)PYRIDIN-4-YL)-1H-PYRAZOLE-4-CARBOXAMIDE” (Janssen Pharmaceutica NV, priority 2021, published 2024).
Read-outs that look alike come from different tables or passages of the source.

Assays:
[1] = tested on: human cytokine IL-10 in serum; test: Serum IL-10 (MSD assay) after a single dose in OCI-LY10 tumor-bearing NSG mice; assay type: in vivo
Method: NF-κB signaling regulates the secretion of multiple cytokines, including interleukin-10 (IL-10). MALT1 inhibition results in a decrease of IL-10 transcription and translation as well as secretion. Levels of the human cytokine IL-10 were measured in the serum of OCI-LY3 or OCI-LY10 ABC-DLBCL tumor bearing mice using a Mesoscale Discovery assay (MSD). 25 μL of mouse serum was transferred to an MSD plate (V-Plex Proinflammation Panel I (human) kit) and incubated together with 25 μL diluent 2 (MSD; R51BB-3) for 2 hours at RT followed by a 2-hour incubation with IL-10 antibody solution. Plates were read on a SECTOR imager. Serum human IL-10 levels were correlated to serum compound concentration.
Serum samples were collected at 2, 12, and 24 hours post dose and tumor samples were collected 24 hours post dose. Human IL-10 was measured in serum samples using a Mesoscale assay.
Serum IL-10 levels are graphed as the mean+/−standard deviation.
For PD, when tumors reached 550-750 mm^3 animals were assigned randomly into the treatment groups and treated as presented in Table 5. Dose volumes were adjusted to individual body weights at 10 mL/kg. For both PD studies, serum was collected at 2 and 12 hours post treatment from the retro-orbital sinus. At 24 hours post treatment, animals were bled via decapitation and tumors were excised, weighed, and divided for bioanalysis and ex vivo PD analysis. Blood was centrifuged at 10,000 rpm and serum divided for bioanalysis and PD analysis.

[2] = tested on: panel of 91 tumor cell lines; test: Growth inhibition across various cancer indications; assay type: cell-based; conditions: more than 18 tumor indications, no ABC-DLBCL lines
From the text: The panel represents cancer cell lines from more than 18 different tumor indications, including breast, colon, lung, ovarian, and blood cancers.

[3] = tested on: B-cell lymphoma lines; test: Anti-proliferative activity, panel of 10 B-cell lymphoma lines (general cytotoxicity); assay type: cell-based
Method: Four ABC-DLBCL cell lines with activating mutations in the canonical NFκB pathway were evaluated (OCI-LY3 (CARD11, MYD88 & A20 mutations), TMD8, HBL1, and OCI-LY10 (CD79B & MYD88 mutations)), which are generally sensitive to NF-κB pathway inhibition. None of the GCB-DLBCL cell lines harbor mutations in the NF-κB pathway. The GCB-DLBCL cell lines served as a negative control to exclude compounds with general cytotoxic effects.
At concentrations ≥20 μM general cytotoxicity was observed.

[4] = Single IV dose plasma PK; assay type: in vivo, mouse
Method: Single intravenous (IV) dose PK was conducted in mice (two strains), rats, monkeys, and dogs at a dose of 1 mg/kg in 70% PEG400 (PEG400/water 70:30) by bolus injection. The time course for plasma sample was optimized to fully characterize the disposition profile in each species. PK analysis was by non-compartmental method.

[5] = Preliminary food effect assessment at steady state; assay type: in vivo, human
Method: Preliminary food effect was assessed in 8 subjects at steady state: 2 subjects at 100 mg (2×50 mg), 1 subject at 400 mg (2×200 mg), 1 subject at 200 mg (4×50 mg) and 4 subjects at 300 mg (3×100 mg). In the fasting condition, JNJ-67856633 was administered after overnight fasting for at least 8 hours. In the fed condition, following an overnight fast of at least 8 hours, the subjects were given a high-fat meal 30 minutes before drug intake. In both conditions, no food was allowed for at least 4 hours after study drug intake. Individual plasma concentrations of JNJ-67856633 under fasting and fed conditions using 50 mg or 200 mg capsules are shown in Table 16.

[6] = tested on: T cells derived from healthy donors; test: CyTOF analysis of T cells stimulated with CD3/28; assay type: cell-based, human
From the text: After fixation and barcoding, samples were pooled per donor and stained using a panel of 32 metal-labelled antibodies for identification of phenotype and function of immune cell populations and acquired on a CyTOF® C5 system. After debarcoding and normalization, cell populations were either manually gated or clustered by spanning-tree progression of density-normalized events (SPADE) analysis using Cytobank® software.
These observations are consistent with the fluorescence-activated cell sorting (FACS) analysis data.

[7] = male, plasma, Mouse, CD-1, 3M, 1 mg/kg IV in 70% PEG400, mean
[8] = male, plasma, Mouse, NSG, 3M, 1 mg/kg IV in 70% PEG400, mean

SMILES: O=C(Nc1ccnc(C(F)(F)F)c1)c1cnn(-c2cccc3c(=O)[nH]ccc23)c1C(F)(F)F [Compound A, 1-(1-oxo-1,2-dihydroisoquinolin-5-yl)-5-(trifluoromethyl)-N-[2-(trifluoromethyl)pyridin-4-yl]-1H-pyrazole-4-carboxamide]
- effect of adding precipitation inhibitor on exposure and PD ([1]; 100 mg/kg plus precipitation inhibitor PVP/VA64, 24 hours): increased exposures correlating to increased PD shutdown at 24 hours
- inhibition or reduction of serum IL-10 ([1]; single oral dose 3 mg/kg, 12 hours post dose): intermediate inhibition or reduction
- inhibition or reduction of serum IL-10 ([1]; single oral dose 10 mg/kg, 12 hours post dose): strong inhibition or reduction
- inhibition or reduction of serum IL-10 ([1]; single oral dose 30 mg/kg, 12 hours post dose): completely inhibited or reduced serum IL-10 levels
- inhibition or reduction of serum IL-10 ([1]; single oral dose 100 mg/kg, 12 hours post dose): completely inhibited or reduced serum IL-10 levels
- inhibition or reduction of serum IL-10 ([1]; single oral dose, 24 hours post dose): rebounded at 24 hours post dose
- sensitivity of tumor cell lines (cell viability) [2]: no single cell lines showing sensitivity to Compound A up to 20 μM
- concentrations at which general cytotoxicity was observed [3]: ≥ 20 µM
- Vd ([4]; CD-1 and NSG (mouse), Sprague-Dawley (rat), beagle (dog), plasma, similar across all species (mouse, rat, monkey, dog), IV 1 mg/kg, read-out: apparent volume of distribution at steady state): ~1 L/kg
- AUC(0-inf) [4, 7]: 12.2 µg·h/mL
- C0 [4, 7]: 940 ng/mL
- clearance [4, 7]: 1.3 mL/min/kg
- Vd ([4]; male, plasma, Mouse, CD-1, 3M, 1 mg/kg IV in 70% PEG400, mean, read-out: Vdss): 1.4 L/kg
- AUC(0-inf) [4, 8]: 5.49 µg·h/mL
- C0 [4, 8]: 1130 ng/mL
- clearance [4, 8]: 3.04 mL/min/kg
- half-life [4, 8]: 5.28 h
- Vd ([4]; male, plasma, Mouse, NSG, 3M, 1 mg/kg IV in 70% PEG400, mean, read-out: Vdss): 1.23 L/kg
- CL as fraction of liver blood flow (LBF) ([4]; mouse, LBF 90 mL/min/kg): 1.4%
- Cmax ([5]; 2 × 50 mg, fasted condition, steady state, individual values, N = 2, listed as JNJ-67856633): 18200 ng/mL
- Cmax ([5]; 2 × 50 mg, fed condition (high-fat meal), steady state, individual values, N = 2, listed as JNJ-67856633): 18400 ng/mL
- AUCτ ([5]; 2 × 50 mg, fed condition, steady state, individual values, N = 2, listed as JNJ-67856633): 421 µg·h/mL
- steady state exposure (Cmax and AUCτ) fasting vs fed ([5]; 8 subjects at steady state): comparable
- AUC ([5]; human, plasma, oral, 100 mg, 2 × 50 mg, fasted condition, steady state, N = 2): 313 µg·h/mL
- Cmax ([5]; human, plasma, oral, 100 mg, 2 × 50 mg, fasted condition, steady state, individual values, N = 2, read-out: Cmax): 15300 ng/mL
- Tmax ([5]; human, plasma, oral, 100 mg, 2 × 50 mg, fasted condition, steady state, individual values, N = 2, read-out: Tmax): 2 h
- Cmax ([5]; human, plasma, oral, 100 mg, 2 × 50 mg, fed condition (high-fat meal), steady state, individual values, N = 2, read-out: Cmax): 13400 ng/mL
- AUC ([5]; human, plasma, oral, 100 mg, 2 × 50 mg, fed condition, steady state, individual values, N = 2): 304 µg·h/mL
- Tmax ([5]; human, plasma, oral, 100 mg, 2 × 50 mg, fed condition, steady state, individual values, N = 2, read-out: Tmax): 6 h
- AUC ([5]; human, plasma, oral, 200 mg, 4 × 50 mg, fasted condition, steady state, N = 1): 958 µg·h/mL
- Cmax ([5]; human, plasma, oral, 200 mg, 4 × 50 mg, fasted condition, steady state, N = 1, read-out: Cmax): 47500 ng/mL
- Tmax ([5]; human, plasma, oral, 200 mg, 4 × 50 mg, fasted condition, steady state, N = 1, read-out: Tmax): 1 h
- AUC ([5]; human, plasma, oral, 200 mg, 4 × 50 mg, fed condition, steady state, N = 1): 1010 µg·h/mL
- Cmax ([5]; human, plasma, oral, 200 mg, 4 × 50 mg, fed condition, steady state, N = 1, read-out: Cmax): 48400 ng/mL
- Tmax ([5]; human, plasma, oral, 200 mg, 4 × 50 mg, fed condition, steady state, N = 1, read-out: Tmax): 24 h
- AUC ([5]; human, plasma, oral, 400 mg, 2 × 200 mg, fasted condition, steady state, N = 1): 1100 µg·h/mL
- Cmax ([5]; human, plasma, oral, 400 mg, 2 × 200 mg, fasted condition, steady state, N = 1, read-out: Cmax): 61100 ng/mL
- AUC ([5]; human, plasma, oral, 400 mg, 2 × 200 mg, fed condition, steady state, N = 1): 1320 µg·h/mL
- Cmax ([5]; human, plasma, oral, 400 mg, 2 × 200 mg, fed condition, steady state, N = 1, read-out: Cmax): 64000 ng/mL
- Tmax ([5]; human, plasma, oral, fasting conditions, 8 subjects at steady state, read-out: Tmax range): 0 to 4 h
- Tmax ([5]; human, plasma, oral, fed conditions, 8 subjects at steady state, read-out: Tmax range): 0.5 to 24 h
- generation of Treg cells following CD3/28 stimulation ([6]; 4 days, CyTOF): dose-dependently inhibited the generation of CD4^+CD25^+CD1271^lowFoxP3^hi cells
- number of CD8+ T cells ([6]; 4 days, CyTOF): no strong effect on the number of CD8^+ T cells was observed
- expression of TIM3 ([6]; CD4+ and CD8+ T cells, CyTOF): No decrease
- expression of exhaustion markers PD-1, CTLA4, LAG3 ([6]; CD8+ T cells, CyTOF): decreased on CD8^+ T cells
- activation of CD8+ T cells ([6]; CD69+CD25+ cells following CD3/28 stimulation): reduced
